Measured values as given in ChEMBL document CHEMBL1154101, “Purinergic P2X(7) receptor antagonists: Chemistry and fundamentals of biological screening” (Bioorg Med Chem, 2009).

Tests used:
P2X purinoceptor 7 [1] = target: T1, P2X purinoceptor 7 (Homo sapiens, UniProt Q99572); assay: Antagonist activity at human recombinant P2X7 receptor expressed in human THP1 cells assessed as inhibition of BzATP-induced IL1-beta release by enzyme-linked immunosorbent assay; type: functional, cell-based, THP-1
T1 sequence (Q99572 whole entry): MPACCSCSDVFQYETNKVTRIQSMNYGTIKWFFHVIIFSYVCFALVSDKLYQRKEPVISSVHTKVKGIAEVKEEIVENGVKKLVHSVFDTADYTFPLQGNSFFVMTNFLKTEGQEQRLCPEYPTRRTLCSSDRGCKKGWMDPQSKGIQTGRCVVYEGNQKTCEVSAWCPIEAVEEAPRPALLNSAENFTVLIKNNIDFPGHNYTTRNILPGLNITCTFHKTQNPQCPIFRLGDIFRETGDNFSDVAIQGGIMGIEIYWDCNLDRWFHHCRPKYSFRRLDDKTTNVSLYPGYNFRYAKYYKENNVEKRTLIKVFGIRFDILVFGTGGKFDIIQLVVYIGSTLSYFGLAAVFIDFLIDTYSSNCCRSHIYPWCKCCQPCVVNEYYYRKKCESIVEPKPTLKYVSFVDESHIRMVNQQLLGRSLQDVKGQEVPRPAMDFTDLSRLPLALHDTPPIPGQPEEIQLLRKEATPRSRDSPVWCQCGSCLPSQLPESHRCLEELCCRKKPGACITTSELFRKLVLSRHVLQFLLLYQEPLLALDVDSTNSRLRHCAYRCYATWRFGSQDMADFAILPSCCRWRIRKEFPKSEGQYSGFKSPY

P2X purinoceptor 7 [2] = target: T1, P2X purinoceptor 7; assay: Antagonist activity at human recombinant P2X7 receptor expressed in human 1321N1 cells assessed as inhibition of BzATP-induced pore formation flux by fluorometric assay; type: functional, cell-based
P2X purinoceptor 7 [3] = target: T1, P2X purinoceptor 7; assay: Antagonist activity at P2X7 receptor in human THP1 cells assessed as inhibition of BzATP-induced pore formation; type: functional, cell-based, THP-1
P2X purinoceptor 7 [4] = target: T2, P2X purinoceptor 7 (Rattus norvegicus, UniProt Q64663); assay: Binding affinity at rat P2X7 receptor
T2 sequence (Q64663 whole entry): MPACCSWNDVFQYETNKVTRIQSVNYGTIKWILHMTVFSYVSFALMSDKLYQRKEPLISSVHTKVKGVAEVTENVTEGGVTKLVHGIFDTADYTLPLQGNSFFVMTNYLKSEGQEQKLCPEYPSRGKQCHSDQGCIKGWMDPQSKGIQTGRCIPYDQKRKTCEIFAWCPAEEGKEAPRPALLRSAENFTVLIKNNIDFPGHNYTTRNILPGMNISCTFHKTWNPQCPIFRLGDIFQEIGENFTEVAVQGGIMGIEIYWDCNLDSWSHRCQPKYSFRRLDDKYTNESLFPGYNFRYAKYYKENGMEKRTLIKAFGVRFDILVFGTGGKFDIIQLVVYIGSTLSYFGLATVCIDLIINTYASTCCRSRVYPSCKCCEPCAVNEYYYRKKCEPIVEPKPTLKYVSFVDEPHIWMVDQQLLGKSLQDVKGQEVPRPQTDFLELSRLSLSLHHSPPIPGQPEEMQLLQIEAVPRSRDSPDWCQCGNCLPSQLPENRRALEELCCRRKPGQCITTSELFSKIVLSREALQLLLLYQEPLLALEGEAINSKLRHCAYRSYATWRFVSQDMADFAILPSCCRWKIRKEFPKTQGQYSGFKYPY

Molecule `COc1ccc(CC(=O)NC(N/C(=N/C#N)Nc2cccc3ncccc23)C(C)(C)C)cc1OC` (stereo unspecified) has an IC50 (P2X purinoceptor 7 [1]) of 156 nM and an IC50 (P2X purinoceptor 7 [2]) of 92 nM.

`CN([C@@H](Cc1ccc(OS(=O)(=O)c2cccc3cnccc23)cc1)C(=O)N1CCN(c2ccccc2)CC1)S(=O)(=O)c1cccc2cnccc12` was tested, and the IC50 (P2X purinoceptor 7 [3]) was 300 nM.

With `[3H]c1ccc([C@H](C)N/C(=N/C#N)Nc2cccc3ncccc23)cc1` the IC50 (P2X purinoceptor 7 [4]) was 10 nM.

For `N=C1N[C@@H]2O[C@@H]3NC(=N)N[C@]34[C@H]([C@H](CNC(=O)c3cc(Br)c(Br)[nH]3)[C@@H](CNC(=O)c3cc(Br)c(Br)[nH]3)[C@@H]4O[C@H]3[C@H](CNC(=O)c4cc(Br)c(Br)[nH]4)[C@@H](CNC(=O)c4cc(Br)c(Br)[nH]4)[C@@H]4[C@]5(O)NC(=N)N[C@@H]5O[C@@H]5NC(=N)N[C@]453)[C@]2(O)N1` [STYLISSADINE A], the IC50 (P2X purinoceptor 7 [3]) was 700 nM.

In the case of `N=C1N[C@@H]2O[C@@H]3NC(=N)N[C@]34[C@H]([C@H](CNC(=O)c3cc(Br)c(Br)[nH]3)[C@@H](CNC(=O)c3cc(Br)c(Br)[nH]3)[C@@H]4O[C@H]3[C@H](CNC(=O)c4cc(Br)c(Br)[nH]4)[C@@H](CNC(=O)c4cc(Br)c(Br)[nH]4)[C@H]4[C@]5(O)NC(=N)N[C@@H]5O[C@@H]5NC(=N)N[C@]534)[C@]2(O)N1` [STYLISSADINE B], the IC50 (P2X purinoceptor 7 [3]) is reported as 1800 nM.
